The source of these data is ChEMBL document CHEMBL1157884, “Synthesis and SAR of heterocyclic carboxylic acid isosteres based on 2-biarylethylimidazole as bombesin receptor subtype-3 (BRS-3) agonists for the treatment of obesity” (Bioorg Med Chem Lett, 2010).

The target in data set [1] is T1, Bombesin receptor subtype-3 (Homo sapiens, UniProt P32247).
T1 sequence (P32247 whole entry): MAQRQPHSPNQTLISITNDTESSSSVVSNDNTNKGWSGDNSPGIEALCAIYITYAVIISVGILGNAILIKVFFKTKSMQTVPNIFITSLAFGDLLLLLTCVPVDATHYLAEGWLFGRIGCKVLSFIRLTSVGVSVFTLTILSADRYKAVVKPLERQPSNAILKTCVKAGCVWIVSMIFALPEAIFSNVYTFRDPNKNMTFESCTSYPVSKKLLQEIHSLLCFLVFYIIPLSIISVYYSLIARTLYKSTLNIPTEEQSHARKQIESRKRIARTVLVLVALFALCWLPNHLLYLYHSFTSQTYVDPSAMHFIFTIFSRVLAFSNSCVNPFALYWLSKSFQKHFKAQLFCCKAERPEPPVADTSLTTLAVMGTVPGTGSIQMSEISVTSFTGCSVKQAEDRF
The experiment in a line: Binding affinity to human BRS3.

The target in data set [2] is T1, Bombesin receptor subtype-3. In words: Agonist activity at human BRS3. The format is functional.
Data set [3] is described as follows: Total plasma concentration in rat at 1 mg/kg, iv after 1 hr. In kind it is ADME, organism-based. The arrangement: dose 1 mg/kg, route intravenous.
The nature of data set [4]: Ratio of drug level in brain to plasma in rat at 1 mg/kg, iv after 1 hr. In kind it is ADME, organism-based. The arrangement: dose 1 mg/kg, route intravenous.
The target in data set [5] is T2, Bombesin receptor subtype-3 (Homo sapiens) (UniProt P32247).
T2 sequence (whole entry): T1 sequence (P32247 whole entry)
In words: Agonist activity at human BRS3 relative to [D-Tyr6,b-Ala11,Phe13,Nle14]-Bombesin. The format is functional.

Data set [6] deals with T3, Bombesin receptor subtype-3 (Mus musculus) (UniProt O54798).
T3 sequence (whole entry): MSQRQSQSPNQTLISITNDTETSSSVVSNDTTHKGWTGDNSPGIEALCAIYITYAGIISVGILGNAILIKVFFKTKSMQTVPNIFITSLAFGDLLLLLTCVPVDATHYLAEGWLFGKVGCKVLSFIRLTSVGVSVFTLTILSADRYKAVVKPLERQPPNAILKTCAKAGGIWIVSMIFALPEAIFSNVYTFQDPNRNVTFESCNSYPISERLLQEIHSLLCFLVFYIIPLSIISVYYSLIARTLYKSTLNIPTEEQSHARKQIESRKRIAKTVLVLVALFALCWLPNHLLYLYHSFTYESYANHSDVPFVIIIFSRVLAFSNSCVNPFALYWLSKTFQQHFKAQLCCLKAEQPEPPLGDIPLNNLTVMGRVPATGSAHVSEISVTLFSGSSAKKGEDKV
In words: Agonist activity at mouse BRS3 relative to [D-Tyr6,b-Ala11,Phe13,Nle14]-Bombesin. The format is functional.

Data set [7] deals with T4, Bombesin receptor subtype-3 (Mus musculus, UniProt O54798).
T4 sequence (O54798 whole entry): T3 sequence (whole entry)
In words: Agonist activity at mouse BRS3. The format is functional.

The nature of data set [8]: Drug level in rat brain at 1 mg/kg, iv after 1 hr. Details: dose 1 mg/kg, route intravenous. Particulars: read-out: Drug uptake. The format is ADME, organism-based.
Data set [9] can be described thus: Drug level in rat brain at 2 mg/kg, iv after 1 hr. Details: dose 2 mg/kg, route intravenous. Particulars: read-out: Drug uptake. In kind it is ADME, organism-based.
Data set [10] can be described thus: Total plasma concentration in rat at 2 mg/kg, iv after 1 hr. In kind it is ADME, organism-based. Details: dose 2 mg/kg, route intravenous.
The nature of data set [11]: Ratio of drug level in brain to plasma in rat at 2 mg/kg, iv after 1 hr. Details: dose 2 mg/kg, route intravenous. The format is ADME, organism-based.
Data set [12] in a line: Oral bioavailability in rat. The format is ADME, organism-based. The conditions noted are these: in vivo.

Structures are written as SMILES.

For the compound `CCC(C)(C)Cc1cnc(CCc2ccc(-c3ccccc3OCc3n[nH]c(=O)[nH]3)cc2)[nH]1`, the IC50 in data set [1] came to 31 nM. Moreover, the EC50 in data set [2] was determined as 336 nM.
For `CCC(C)(C)Cc1c[nH]c(CCc2ccc(-c3ccccc3OCc3nc(=S)[nH][nH]3)cc2)n1`, the concentration at 1 h in [3] turned out to be 4960 nM; in data set [8], 30 nM. In addition, the partition ratio (Kp) at 1 h in data set [4] stood at 0.006. The Activity came to 114% in data set [5] and 120% in [6]. In data set [1], this compound returned an IC50 of 6.1 nM. Moreover, the EC50 amounted to 41 nM in [2] and 5.8 nM in data set [7].
For the compound `CCC(C)(C)Cc1c[nH]c(CCc2ccc(N3CCCC[C@@H]3c3ncn[nH]3)cc2)n1`, the Activity in data set [5] came out at 96%; in data set [6] it was 117%.
Regarding `CCC(C)(C)Cc1c[nH]c(CCc2ccc(-c3ccccc3OCc3nnn[nH]3)cc2)n1`, the Activity in data set [5] worked out at 111%; in data set [6] it was 109%. Further, the concentration at 1 h came to 10 nM in data set [9] and 1250 nM in data set [10]. The partition ratio (Kp) at 1 h in data set [11] was 0.01. In addition, the EC50 stood at 30 nM in data set [2] and 2.9 nM in [7].
In turn, `c1ccc(-c2nnn[nH]2)c(-c2ccc(CCc3ncc(CC4CCCC4)[nH]3)cc2)c1` had an IC50 in data set [1] of 15 nM. Also, the EC50 in [2] was 56 nM; in data set [7], 16 nM.
`CCC(C)(C)Cc1c[nH]c(CCc2ccc(-c3ccccc3OCc3nnc[nH]3)cc2)n1`: the IC50 in data set [1] is 22 nM. The concentration for a half-maximal effect (EC50) in data set [2] came out at 172 nM.
Turning to `CCC(C)(C)Cc1c[nH]c(CCc2ccc(-c3ccccc3OCc3nc(=O)[nH][nH]3)cc2)n1`, in data set [5], the Activity stood at 107%.
With `CCC(C)(C)Cc1c[nH]c(CCc2ccc(-c3ccccc3OCc3nc(N)n[nH]3)cc2)n1`, the concentration at 1 h in [3] turned out to be 860 nM; in [8], 10 nM. Besides, the Kp at 1 h in data set [4] is 0.016. The results for the Activity in data set [5] and in data set [6] were 98% and 115%, respectively. Also, the 50% inhibitory concentration (IC50) in data set [1] amounted to 27 nM. Moreover, the EC50 was 78 nM in data set [2] and 4.6 nM in [7].
In the case of `CCC(C)(C)Cc1c[nH]c(CCc2ccc(-c3ccccc3OCc3nc(C(F)(F)F)n[nH]3)cc2)n1`, the Activity in [5] was 89%; in data set [6], 122%. Besides, the 50% inhibitory concentration (IC50) in data set [1] turned out to be 127 nM. Moreover, the EC50 in data set [2] is 129 nM; in data set [7], 12 nM.
As for `CCC(C)(C)Cc1cnc(CCc2ccc(-c3ccccc3OCc3cnn[nH]3)cc2)[nH]1`, the IC50 in data set [1] turned out to be 83 nM. Besides, the response in [2] was half-maximal at 399 nM (EC50).
Turning to `CCC(C)(C)Cc1c[nH]c(CCc2ccc(-c3ccccc3OCc3ncn[nH]3)cc2)n1`, in [5], the Activity was determined as 113%.
On to `CCC(C)(C)Cc1c[nH]c(CCc2ccc(N3CCCc4cn[nH]c43)cc2)n1`, for which, in [12], the bioavailability worked out at 29%. Moreover, the figures for the Activity in data set [5] and in [6] were 101% and 120%, respectively. Also, the results for the EC50 in data set [2] and in [7] were 42 nM and 13 nM, respectively.
As to `CCC(C)(C)Cc1c[nH]c(CCc2ccc(-c3ccccc3OCc3cnn[nH]3)cc2)n1`, the Activity in [5] amounted to 97%.
For `CCC(C)(C)Cc1cnc(CCc2ccc3c(c2)CNC(=O)c2ccccc2-3)[nH]1`, the concentration at 1 h in data set [3] came out at 310 nM; in data set [8], 20 nM. Further, the partition ratio (Kp) at 1 h in data set [4] stood at 0.068. The same compound yielded an IC50 in data set [1] of 10 nM. In addition, the 50% effective concentration (EC50) in data set [2] came to 29 nM; in [7], 11 nM.
Regarding `CCC(C)(C)Cc1cnc(CCc2ccc(-c3ccccc3OCC(=O)O)cc2)[nH]1`, the concentration for half-maximal inhibition (IC50) in data set [1] came to 103 nM. In data set [2], the EC50 was 54 nM.
For the compound `CCC(C)(C)Cc1c[nH]c(CCc2ccc3c(c2)CN(C)C(=O)c2ccccc2-3)n1`, the Activity turned out to be 96% in data set [5] and 119% in data set [6].
On to `O=C1NC(=O)C(c2ccccc2-c2ccc(CCC3N=CC(CC4CCCC4)=N3)cc2)S1` (stereo unspecified), for which the Activity in data set [5] amounted to 94%. Moreover, the IC50 in data set [1] turned out to be 287 nM. Moreover, the concentration giving a half-maximal response (EC50) in data set [2] came out at 1770 nM.
The compound `CCC(C)(C)Cc1cnc(CCc2ccc3c(c2)CN(C)C(=O)c2ccccc2-3)[nH]1` returned an IC50 in [1] of 20 nM. Also, the figures for the EC50 in [2] and in data set [7] were 56 nM and 27 nM, respectively.
Consider `c1ccc(-c2nnn[nH]2)c(-c2ccc(CCc3nc(CC4CCCC4)c[nH]3)cc2)c1`, for which the Activity in data set [5] was determined as 112%; in data set [6] it was 85%.
The matching figures for `CCC(C)(C)Cc1c[nH]c(CCc2ccc3c(c2)CNC(=O)c2ccccc2-3)n1`: 98% and 118%.
On to `CCC(C)(C)Cc1c[nH]c(CCc2ccc(N3CCCC[C@@H]3c3nnn[nH]3)cc2)n1`, for which the bioavailability in data set [12] came to 4.9%. Further, the Activity in [5] amounted to 100%; in [6] it was 119%. Besides, the IC50 in data set [1] came to 6.2 nM. The concentration giving a half-maximal response (EC50) was 15 nM in [2] and 16 nM in [7].
For `CCC(C)(C)Cc1cnc(CCc2ccc(N3CCCC[C@@H]3c3nnc[nH]3)cc2)[nH]1`, in data set [12], the bioavailability was found to be 4.8%. Moreover, the half-maximal inhibitory concentration (IC50) in data set [1] worked out at 26 nM. Besides, the EC50 was 42 nM in [2] and 13 nM in [7].
In turn, `CCC(C)(C)Cc1c[nH]c(CCc2ccc(-c3ccccc3OCC(=O)O)cc2)n1` displayed an Activity in [5] of 97%.
In the case of `CCC(C)(C)Cc1c[nH]c(CCc2ccc(N3CCCC[C@@H]3C(=O)O)cc2)n1`, the concentration at 1 h turned out to be 210 nM in [3] and 10 nM in data set [8]. Besides, the Kp at 1 h in data set [4] was found to be 0.04. Besides, the results for the Activity in data set [5] and in [6] were 100% and 111%, respectively. The compound further yielded an IC50 in data set [1] of 5.3 nM. The EC50 in [2] came to 24 nM; in data set [7], 12 nM.
For `CCC(C)(C)Cc1c[nH]c(CCc2ccc(-c3ccccc3O)cc2)n1`, the values for the Activity in data set [5] and in data set [6] were 97% and 113%, respectively. Besides, the half-maximal inhibitory concentration (IC50) in [1] amounted to 31 nM. Besides, the results for the EC50 in [2] and in data set [7] were 133 nM and 34 nM, respectively.

The IC50 is the concentration that gives 50% inhibition. High values mean a need for much substance, low ones inhibition by little substance. A word on the EC50: it is the concentration needed to bring the measured effect to its halfway point. A low value points to an effect from little substance. For orientation: Kp means tissue or fluid exposure divided by exposure in the circulation. One may read the bioavailability as dose-corrected exposure relative to a reference, in per cent. Higher therefore signals good availability.
